Experimental data from ChEMBL document CHEMBL4673356, “Assessing the cellular toxicity of peptide inhibitors of intracellular protein-protein interactions by microinjection” (Bioorg Med Chem, 2021).
pKd: −log10 of the molar value. Where a SMILES comes first, the peptide text is derived from it. [ ]: non-standard residue; d: D form. The star is where a group is joined. X1 = CCN1/C(=C/C=C/C=C/C2=[N+](CCCCCC(=O)*)c3ccc(S(=O)(=O)[O-])cc3C2(C)C)C(C)(C)c2cc(S(=O)(=O)O)ccc21; βAla = NCCC(=O)O

Legend:
[1] = Stability of the compound in human AD293 cells assessed as intact compound remaining at 20 uM measured after 5 hrs by LC-MS analysis; assay type: ADME, cell-based; conditions: read-out: Stabilty
[2] = Stability of the compound in human AD293 cells assessed as intact compound remaining at 20 uM measured after 24 hrs by LC-MS analysis; assay type: ADME, cell-based; conditions: read-out: Stabilty
[3] = Inhibition of iNOS (unknown origin) and SPSB2 interaction assessed as binding affinity to murine SPSB2 immobilized on CM5 chip by SPR assay; set-up: species or system Mus musculus
[4] = tested on: AD293; assay: Cytotoxicity against human AD293 cells assessed as cell viability at 2.7 to 273 uM co-treated via microinjection with Cy5-BSA into cytoplasm and measured after 5 hrs by Cy5-BSA/PI staining based fluorescence analysis; conditions: ad293, 5 h, dose 2.7-273 µM
[5] = tested on: AD293; assay: Cytotoxicity against human AD-293 cells assessed as morphologically intact viable cells at 2.7 to 273 uM co-treated via microinjection with Cy5-BSA into cytoplasm and measured after 5 hrs by Cy5-BSA/PI staining based fluorescence analysis; assay type: cell-based; conditions: ad293, 5 h, dose 2.7-273 µM
[6] = tested on: AD293; assay: Cytotoxicity against human AD293 cells assessed as cell viability at 2.7 to 273 uM co-treated via microinjection with Cy5-BSA into nucleus and measured after 5 hrs by Cy5-BSA/PI staining based fluorescence analysis; conditions: ad293, 5 h, dose 2.7-273 µM
[7] = tested on: AD293; assay: Cytotoxicity against human AD293 cells assessed as cell viability at 200 uM; assay type: cell-based; conditions: ad293, 200 µM
[8] = Drug localization in cytosol of human AD293 cells at 7.3 uM treated via microinjection into cytoplasm measured up to 5 hrs by confocal microscopic analysis; assay type: ADME, subcellular

Structure (SMILES)	remaining at 5 h, 20 µM [1] [%]	remaining at 24 h, 20 µM [2] [%]	pKd [3]	Activity [4]	Activity [5]	Activity [6]	Activity [7]	Drug uptake [8]
CC[C@H](C)[C@@H]1NC(=O)[C@H](CC(=O)O)NC(=O)[C@H](Cc2c[nH]c3ccccc23)NC(=O)CCNC(=O)[C@H](CC(N)=O)NC(=O)[C@H](CC(N)=O)NC(=O)[C@H](CC(N)=O)NC1=O (cyclo(DINNN[βAla]W))	97.5	94.7	7.68	Non-Toxic	Non-Toxic	Non-Toxic	Non-Toxic	
CCN1/C(=C/C=C/C=C/C2=[N+](CCCCCC(=O)NCCCC[C@@H]3NC(=O)[C@H](CC(=O)O)NC(=O)[C@H](Cc4c[nH]c5ccccc45)NC(=O)CCNC(=O)[C@H](CC(N)=O)NC(=O)[C@H](CC(N)=O)NC(=O)[C@H](CC(N)=O)NC3=O)c3ccc(S(=O)(=O)[O-])cc3C2(C)C)C(C)(C)c2cc(S(=O)(=O)O)ccc21 (cyclo(DK(X1)NNN[βAla]W))			6.96					Active
